Measurements reported in patent US20070099911A1, “Pyrroloquinolinone derivatives as 5-hydroxytryptamine-6 ligands” (Wyeth, priority 2005, published 2007).
Counter-ions that a name gives are not always drawn.

System: not given
Assay: not given
Conditions: not given

SMILES	melting point
O=c1c2ccc3c(c(CCN(Cc4ccccc4)Cc4ccccc4)cn3Cc3ccccc3)c2ccn1Cc1ccccc1 (as salt: HCl) [Example 1018, 3,7-dibenzyl-1-(2-dibenzylaminoethyl)-3H,7H-pyrrolo[3,2-f]isoquinolin-6-one]	234 to 236 °C
CNCCc1c[nH]c2ccc3c(=O)[nH]ccc3c12 (as salt: HCl) [Example 1021, 1-(2-methylaminoethyl)-3H,7H-pyrrolo[3,2-f]isoquinolin-6-one]	160 °C
CN(CCc1c[nH]c2ccc3c(=O)[nH]ccc3c12)Cc1ccccc1 (as salt: hydrochloride)	152 to 155 °C
NCCc1c[nH]c2ccc3c(=O)n(CCc4ccccc4)ccc3c12 (as salt: hydrochloride)	162 to 166 °C
NCCc1c[nH]c2ccc3c(=O)n(Cc4ccc(F)cc4)ccc3c12 (as salt: hydrochloride)	247 to 249 °C
NCCc1c[nH]c2ccc3c(=O)[nH]ccc3c12 (as salt: hydrochloride)	> 280 °C
Cn1ccc2c(ccc3[nH]cc(CCN)c32)c1=O (as salt: hydrochloride) [Example 94]	295 to 298 °C
NCCc1c[nH]c2ccc3c(=O)n(Cc4ccccc4)ccc3c12 (as salt: hydrochloride) [Example 182]	266 to 268 °C
NCCc1c[nH]c2ccc3c(=O)n(CC4CCCCC4)ccc3c12 (as salt: hydrochloride) [Example 269, 1-(2-aminoethyl)-7-cyclohexylmethyl-3H,7H-pyrrolo[3,2-]isoquinolin-6-one]	220 to 224 °C
NCCc1c[nH]c2ccc3c(=O)n(Cc4ccccc4)cnc3c12 [Example 1029]	302 to 305 °C

Other lines, results leading:

melting point	SMILES
279 to 285 °C	Cn1cnc2c(ccc3[nH]cc(CCN)c32)c1=O
252 °C (dec.)	NCCc1c(Br)[nH]c2ccc3c(=O)[nH]ccc3c12 (as salt: HBr)
250 to 253 °C	O=c1[nH]ccc2c1ccc1[nH]cc(CCN(Cc3ccccc3)Cc3ccccc3)c12 (as salt: HCl)
210 °C	O=c1[nH]ccc2c3c(ccc12)N=CC3CCNCc1ccccc1 (stereo not shown) (as salt: HCl) [Example 7A, 1-(2-Benzylaminoethyl)-6,7-dihydro-1H-pyrrolo[3,2-f]isoquinolin-6-one]
205 to 208 °C	Cn1ccc2c(ccc3[nH]cc(CCNCCc4ccccc4)c32)c1=O (as salt: HCl) [Example 95, 7-methyl-1-(2-phenethylaminoethyl)-3H,7H-pyrrolo[3,2-f]isoquinolin-6-one]
224 to 227 °C	CCn1ccc2c(ccc3[nH]cc(CCN)c32)c1=O (as salt: hydrochloride)
260 to 262 °C	NCCc1c[nH]c2ccc3c(=O)n(CC4CCCCO4)ccc3c12 (stereo not shown) (as salt: hydrochloride)
> 250 °C	NCCc1c[nH]c2ccc3c(=O)n(Cc4ccccc4F)ccc3c12 (as salt: hydrochloride)
225 to 230 °C	NCCCc1c[nH]c2ccc3c(=O)[nH]ccc3c12 (as salt: hydrochloride) [Example 268, 1-(3-aminopropyl)-3H,7H-pyrrolo[3,2-f]isoquinolin-6-one]
> 300 °C	NCCc1c(-c2ccc(Cl)cc2)[nH]c2ccc3c(=O)[nH]ccc3c12 (as salt: hydrochloride) [Example 278, 1-(2-aminoethyl)-2-(4-chlorophenyl)-3H,7H-pyrrolo[3,2-f]isoquinolin-6-one]
205 to 206 °C	O=c1c2ccc3[nH]cc(CCNS(=O)(=O)c4ccccc4)c3c2ccn1Cc1ccccc1 [Example 1022, N-[2-(7-benzyl-6-oxo-6,7-dihydro-3H-pyrrolo[3,2-f]isoquinolin-1-yl)-ethyl]-benzenesulfonamide]

Biological target: T1, human cloned 5-HT6 receptors (Homo sapiens, UniProt P50406)
T1 construct: expressed in transfected cells; host or cells: HeLa cells (membrane preparation)
T1 sequence (P50406 whole entry): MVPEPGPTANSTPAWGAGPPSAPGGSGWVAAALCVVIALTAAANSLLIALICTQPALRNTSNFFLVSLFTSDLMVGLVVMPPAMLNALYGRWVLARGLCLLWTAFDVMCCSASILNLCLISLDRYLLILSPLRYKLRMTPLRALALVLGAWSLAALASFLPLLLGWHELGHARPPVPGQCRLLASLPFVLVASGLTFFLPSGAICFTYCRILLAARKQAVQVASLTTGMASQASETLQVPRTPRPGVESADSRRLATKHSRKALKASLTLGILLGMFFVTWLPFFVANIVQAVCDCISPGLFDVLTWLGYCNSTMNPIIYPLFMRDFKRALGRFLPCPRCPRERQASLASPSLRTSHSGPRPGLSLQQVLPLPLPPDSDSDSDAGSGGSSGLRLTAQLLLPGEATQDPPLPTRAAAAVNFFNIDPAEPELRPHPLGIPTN
Assay: Comparative evaluation of 5-HT6 binding affinity ([3H]-LSD displacement, Hela cell membranes)
Conditions: not given
Method: Comparative Evaluation of 5-HT6 Binding Affinity of Test Compounds
The affinity of test compounds for the 5-HT6 receptor is evaluated in the following manner. Cultured Hela cells expressing human cloned 5-HT6 receptors are harvested and centrifuged at low speed (1,000×g) for 10.0 min to remove the culture media. The harvested cells are suspended in half volume of fresh physiological phosphate buffered saline (PBS) solution and recentrifuged at the same speed. This operation is repeated. The collected cells are then homogenized in ten volumes of 50 mM Tris.HCl (pH 7.4) and 0.5 mM EDTA. The homogenate is centrifuged at 40,000×g for 30.0 min, and the precipitate is collected. The obtained pellet is resuspended in 10 volumes of Tris.HCl buffer and recentrifuged at the same speed. The final pellet is suspended in a small volume of Tris.HCl buffer, and the tissue protein content is determined in aliquots of 10-25 microliter volumes. Bovine Serum Albumin is used as the standard in the protein determination according to the method described in Lowry et al., J. Biol. Chem. 1951, 193, 265. The volume of the suspended cell membranes is adjusted to give a tissue protein concentration of 1.0 mg/ml of suspension. The prepared membrane suspension (10 times concentrated) is aliquoted in 1.0 ml volumes and stored at −70° C. until used in subsequent binding experiments.
The reaction is allowed to proceed in the dark for 120 min at room temperature, at which time, the bound ligand-receptor complex is filtered off on a 96-well unifilter with a Packard Filtermate® 196 Harvester. The bound complex caught on the filter disk is allowed to air dry, and the radioactivity is measured in a Packard TopCount® equipped with six photomultiplier detectors, after the addition of 40.0 micoliters Micorscint®-20 scintillant to each shallow well. The unifilter plate is heat-sealed and counted in a Packard TopCount® with a tritium efficiency of 31%.
Specific binding to eh 5-HT6 receptor is defined as the total radioactivity bound less the amount bound in the presence of […] unlabelled methiothipin. Binding in the presence of varying concentrations of test compound is expressed as a percentage of specific binding in the absence of test compound. The results are plotted as log % bound versus log concentration of the test compound. […] A linear regression is plotted, from which the IC50 value is determined, and the Ki value is determined based upon the following equation: Ki=IC50/(1+L/KD) where L is the concentration of the radioactive ligand used and KD is the dissociation constant of the ligand for the receptor, both expressed in nM.

SMILES	Ki [nM]
Cn1ccc2c(ccc3[nH]cc(CCN)c32)c1=O [Example 94]	18
NCCc1c[nH]c2ccc3c(=O)n(Cc4ccccc4)ccc3c12 [Example 182]	11
NCCc1c[nH]c2ccc3c(=O)n(CC4CCCCC4)ccc3c12 [Example 269, 1-(2-aminoethyl)-7-cyclohexylmethyl-3H,7H-pyrrolo[3,2-]isoquinolin-6-one]	13
NCCc1c[nH]c2ccc3c(=O)n(Cc4ccsc4)ccc3c12 [Example 274, 1-(2-aminoethyl)-7-thiophen-3-ylmethyl-3H,7H-pyrrolo[3,2-f]isoquinolin-6-one]	11
CNCCc1c[nH]c2ccc3c(=O)[nH]ccc3c12 [Example 1021, 1-(2-methylaminoethyl)-3H,7H-pyrrolo[3,2-f]isoquinolin-6-one]	21
NCCc1c[nH]c2ccc3c(=O)n(Cc4ccccc4)cnc3c12 [Example 1029]	32

Same assay, conditions: [3H]-LSD displacement, membranes of Hela cells expressing human cloned 5-HT6 receptors; read-out: 5-HT6 binding Ki

Ki [nM]	SMILES
15	O=c1[nH]ccc2c3c(ccc12)N=CC3CCNCc1ccccc1 (stereo not shown) [Example 7A, 1-(2-Benzylaminoethyl)-6,7-dihydro-1H-pyrrolo[3,2-f]isoquinolin-6-one]
